These compounds were tested against ATX (human His-tagged) (Homo sapiens (Human), UniProt Q13822) (assay: Human ATX enzyme inhibition assay (fluorescence quenching, MR121 substrate)). Settings: 30 nM ATX, 1 μM MR121 substrate, 30° C., pH 8.0.
Assay type: biochemical
Procedure, shortened: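 Fluorescence quenching assay with MR121/tryptophan-labelled substrate analogue in Tris-HCl buffer (140 mM NaCl, CaCl2, MgCl2, 0.01% Triton X-100, pH 8.0). Serially diluted compounds were preincubated 15 min at 30 °C with 30 nM ATX (final), then 1 µM substrate (final) added and incubated 15 min at 30 °C.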

Compound | IC50
CCOc1cc(C(=O)N2C[C@@H]3[C@H]4CN(C(=O)c5ccc6[nH]nnc6c5)C[C@H]4[C@@H]3C2)cc2c1ccn2CC(F)(F)F [Example 1.085, (1H-benzotriazol-5-yl)-{(3aS,3bS,6aR,6bR)-5-[4-ethoxy-1-(2,2,2-trifluoro-ethyl)-1H-indole-6-carbonyl]-octahydro-cyclobuta[1,2-c;3,4-c′]dipyrrol-2-yl}-methanone] | 2.7 nM
O=C(c1ccc2[nH]nnc2c1)N1C[C@@H]2[C@H](C1)[C@H]1CN(C(=O)c3cc(OCC4CC4)c(Cl)cn3)C[C@@H]21 [Example 1.086, (1H-benzotriazol-5-yl)-[(3aS,3bR,6aS,6bR)-5-(5-chloro-4-cyclopropylmethoxy-pyridine-2-carbonyl)-octahydro-cyclobuta[1,2-c;3,4-c′]dipyrrol-2-yl]-methanone] | 17 nM
O=C(c1ccc2[nH]nnc2c1)N1C[C@@H]2[C@H](C1)[C@H]1CN(C(=O)c3ccc(C4CC4)c(OCC4CC4)n3)C[C@@H]21 [Example 1.087, (1H-benzotriazol-5-yl)-[(3aS,3bR,6aS,6bR)-5-(5-cyclopropyl-6-cyclopropylmethoxy-pyridine-2-carbonyl)-octahydro-cyclobuta[1,2-c;3,4-c′]dipyrrol-2-yl]-methanone] | 15.3 nM
CCOc1cc(C(=O)N2C[C@@H]3[C@H]4CN(C(=O)c5ccc6[nH]nnc6c5)C[C@H]4[C@@H]3C2)nc2c1CCCC2 [Example 1.088] | 41.3 nM
O=C(c1cccc(-c2ccc(Cl)cc2)c1)N1C[C@@H]2[C@H](C1)[C@H]1CN(C(=O)c3ccc4[nH]nnc4c3)C[C@@H]21 [Example 1.089, (1H-benzotriazol-5-yl)-[(3aS,3bS,6aR,6bR)-5-(4′-chloro-biphenyl-3-carbonyl)-octahydro-cyclobuta[1,2-c;3,4-c′]dipyrrol-2-yl]-methanone] | 20 nM
CCOc1cc(C(=O)N2C[C@@H]3[C@H]4CN(C(=O)c5ccc6[nH]nnc6c5)C[C@H]4[C@@H]3C2)nc2cc(OC)ccc12 [Example 1.090, (1H-benzotriazol-5-yl)-[(3aS,3bR,6aS,6bR)-5-(4-ethoxy-7-methoxy-quinoline-2-carbonyl)-octahydro-cyclobuta[1,2-c;3,4-c′]dipyrrol-2-yl]-methanone] | 19 nM
CCOc1cc(C(=O)N2C[C@@H]3[C@H](C2)[C@H]2CN(C(=O)c4ccc5[nH]nnc5n4)C[C@@H]32)nc2ccc(C(F)(F)F)cc12 [Example 1.091, [(3aS,3bS,6aR,6bR)-5-(4-ethoxy-6-trifluoromethyl-quinoline-2-carbonyl)-octahydro-cyclobuta[1,2-c;3,4-c′]dipyrrol-2-yl]-(1H-[1,2,3]triazolo[4,5-b]pyridin-5-yl)-methanone] | 17 nM
CCOc1nc(C(=O)N2C[C@@H]3[C@H](C2)[C@H]2CN(C(=O)c4ccc5[nH]nnc5n4)C[C@@H]32)cc2ccccc12 [Example 1.092, [(3aS,3bS,6aR,6bR)-5-(1-ethoxy-isoquinoline-3-carbonyl)-octahydro-cyclobuta[1,2-c;3,4-c′]dipyrrol-2-yl]-(1H-[1,2,3]triazolo[4,5-b]pyridin-5-yl)-methanone] | 18 nM
O=C(c1ccc2[nH]nnc2c1)N1C[C@@H]2[C@H](C1)[C@H]1CN(C(=O)c3ccc(C(F)(F)F)c(OCC4CC4)n3)C[C@@H]21 [Example 1.093, (1H-benzotriazol-5-yl)-[(3aS,3bR,6aS,6bR)-5-(6-cyclopropylmethoxy-5-trifluoromethyl-pyridine-2-carbonyl)-octahydro-cyclobuta[1,2-c;3,4-c′]dipyrrol-2-yl]-methanone] | 17 nM
O=C(c1ccc2[nH]nnc2c1)N1C[C@@H]2[C@H](C1)[C@H]1CN(C(=O)c3cc(OCC(F)(F)F)c(C4CC4)cn3)C[C@@H]21 [Example 1.094, (1H-benzotriazol-5-yl)-{(3aS,3bR,6aS,6bR)-5-[5-cyclopropyl-4-(2,2,2-trifluoro-ethoxy)-pyridine-2-carbonyl]-octahydro-cyclobuta[1,2-c;3,4-c′]dipyrrol-2-yl}-methanone] | 77 nM
O=C(c1ccc2[nH]nnc2c1)N1CC2C(C1)C1CN(C(=O)c3cc(OCC(F)(F)F)c(C4CC4)nn3)CC21 (stereo not drawn) [Example 1.095] | 32 nM
CCOc1cc(C(=O)N2C[C@@H]3[C@H]4CN(C(=O)c5ccc6[nH]nnc6c5)C[C@H]4[C@@H]3C2)nc2ccc(Cl)cc12 [Example 1.096, [(3aR,3bS,6aR,6bS)-5-(1H-benzotriazole-5-carbonyl)-octahydro-cyclobuta[1,2-c;3,4-c′]dipyrrol-2-yl]-(6-chloro-4-ethoxy-quinolin-2-yl)-methanone] | 12 nM
O=C(c1ccc2[nH]nnc2c1)N1C[C@@H]2[C@H](C1)[C@H]1CN(C(=O)c3ccc(C(F)(F)F)c(OCC(F)(F)F)n3)C[C@@H]21 [Example 1.097, (1H-benzotriazol-5-yl)-{(3aS,3bR,6aS,6bR)-5-[6-(2,2,2-trifluoro-ethoxy)-5-trifluoromethyl-pyridine-2-carbonyl]-octahydro-cyclobuta[1,2-c;3,4-c′]dipyrrol-2-yl}-methanone] | 25 nM
O=C(c1ccc2[nH]nnc2c1)N1C[C@@H]2[C@H](C1)[C@H]1CN(C(=O)c3cccc(OCC(F)(F)F)n3)C[C@@H]21 [Example 1.098, (1H-benzotriazol-5-yl)-{(3aS,3bR,6aS,6bR)-5-[6-(2,2,2-trifluoro-ethoxy)-pyridine-2-carbonyl]-octahydro-cyclobuta[1,2-c;3,4-c′]dipyrrol-2-yl}-methanone] | 859 nM
O=C(c1ccc(OCC(F)(F)F)nc1)N1C[C@@H]2[C@H](C1)[C@H]1CN(C(=O)c3ccc4[nH]nnc4c3)C[C@@H]21 [Example 1.099, (1H-benzotriazol-5-yl)-{(3aS,3bS,6aR,6bR)-5-[6-(2,2,2-trifluoro-ethoxy)-pyridine-3-carbonyl]-octahydro-cyclobuta[1,2-c;3,4-c′]dipyrrol-2-yl}-methanone] | 277 nM
O=C(c1cnc(OCC(F)(F)F)c(Br)c1)N1C[C@@H]2[C@H](C1)[C@H]1CN(C(=O)c3ccc4[nH]nnc4c3)C[C@@H]21 [Example 1.100, (1H-benzotriazol-5-yl)-{(3aS,3bS,6aR,6bR)-5-[5-bromo-6-(2,2,2-trifluoro-ethoxy)-pyridine-3-carbonyl]-octahydro-cyclobuta[1,2-c;3,4-c′]dipyrrol-2-yl}-methanone] | 10 nM
O=C(c1ccc2[nH]nnc2c1)N1C[C@@H]2[C@H](C1)[C@H]1CN(C(=O)c3ccc(OCC(F)(F)F)cn3)C[C@@H]21 [Example 1.101, (1H-benzotriazol-5-yl)-{(3aS,3bR,6aS,6bR)-5-[5-(2,2,2-trifluoro-ethoxy)-pyridine-2-carbonyl]-octahydro-cyclobuta[1,2-c;3,4-c′]dipyrrol-2-yl}-methanone] | 4430 nM
Cc1ccc(C(=O)N2C[C@@H]3[C@H](C2)[C@H]2CN(C(=O)c4ccc(OCC5CC5)nn4)C[C@@H]32)cc1C [Example 1.102, [(3aS,3bR,6aS,6bR)-5-(6-cyclopropylmethoxy-pyridazine-3-carbonyl)-octahydro-cyclobuta[1,2-c;3,4-c′]dipyrrol-2-yl]-(3,4-dimethyl-phenyl)-methanone] | 992 nM
O=C(c1cnc(OCC(F)(F)F)c(C2CC2)c1)N1C[C@@H]2[C@H](C1)[C@H]1CN(C(=O)c3ccc4[nH]nnc4c3)C[C@@H]21 [Example 1.104, (1H-benzotriazol-5-yl)-{(3aS,3bS,6aR,6bR)-5-[5-cyclopropyl-6-(2,2,2-trifluoro-ethoxy)-pyridine-3-carbonyl]-octahydro-cyclobuta[1,2-c;3,4-c′]dipyrrol-2-yl}-methanone] | 10 nM
O=C(c1cnc(OCC(F)(F)F)c(C(F)(F)F)c1)N1C[C@@H]2[C@H](C1)[C@H]1CN(C(=O)c3ccc4[nH]nnc4c3)C[C@@H]21 [Example 1.105, (1H-benzotriazol-5-yl)-{(3aS,3bS,6aR,6bR)-5-[6-(2,2,2-trifluoro-ethoxy)-5-trifluoromethyl-pyridine-3-carbonyl]-octahydro-cyclobuta[1,2-c;3,4-c′]dipyrrol-2-yl}-methanone] | 8 nM
O=C(c1cnc(OCC(F)(F)F)c(C2CCOCC2)c1)N1C[C@@H]2[C@H](C1)[C@H]1CN(C(=O)c3ccc4[nH]nnc4c3)C[C@@H]21 [Example 1.106, (1H-benzotriazol-5-yl)-{(3aS,3bS,6aR,6bR)-5-[5-(tetrahydro-pyran-4-yl)-6-(2,2,2-trifluoro-ethoxy)-pyridine-3-carbonyl]-octahydro-cyclobuta[1,2-c;3,4-c′]dipyrrol-2-yl}-methanone] | 169 nM
O=C(c1ccc2[nH]nnc2c1)N1C[C@@H]2[C@H](C1)[C@H]1CN(C(=O)c3cc(-c4ccc(Cl)cc4)c(OCC(F)(F)F)cn3)C[C@@H]21 [Example 1.107, (1H-benzotriazol-5-yl)-{(3aS,3bR,6aS,6bR)-5-[4-(4-chloro-phenyl)-5-(2,2,2-trifluoro-ethoxy)-pyridine-2-carbonyl]-octahydro-cyclobuta[1,2-c;3,4-c′]dipyrrol-2-yl}-methanone] | 141 nM
O=C(c1cnc(OCC(F)(F)F)c(-c2ccco2)c1)N1C[C@@H]2[C@H](C1)[C@H]1CN(C(=O)c3ccc4[nH]nnc4c3)C[C@@H]21 [Example 1.108, (1H-benzotriazol-5-yl)-{(3aS,3bS,6aR,6bR)-5-[5-furan-2-yl-6-(2,2,2-trifluoro-ethoxy)-pyridine-3-carbonyl]-octahydro-cyclobuta[1,2-c;3,4-c′]dipyrrol-2-yl}-methanone] | 6 nM
O=C(c1cnc(OCC(F)(F)F)c(Cl)c1)N1C[C@@H]2[C@H](C1)[C@H]1CN(C(=O)c3ccc4[nH]nnc4c3)C[C@@H]21 [Example 1.109, (1H-benzotriazol-5-yl)-{(3aS,3bS,6aR,6bR)-5-[5-chloro-6-(2,2,2-trifluoro-ethoxy)-pyridine-3-carbonyl]-octahydro-cyclobuta[1,2-c;3,4-c′]dipyrrol-2-yl}-methanone] | 301 nM

Reference: patent US10849881B2, “Octahydro-cyclobuta[1,2-c;3,4-c′]dipyrrol-2-yl” (Hoffmann-La Roche Inc., priority 2013, dated 2020)
